{
  "source": "paper PMC2667487",
  "about": "“Cellular localization of kinin B1 receptor in the spinal cord of streptozotocin-diabetic rats with a fluorescent [N^α-Bodipy]-des-Arg^9-bradykinin” (Journal of Neuroinflammation, 2009)",
  "key": {"[1]": {"system": "B1R mRNA in thoracic spinal cord", "assay": "B1R mRNA expression, SYBR green-based quantitative RT-PCR", "parameters": "species or system rat", "details": "STZ 65 mg/kg i.p., 4 days, 18S reference, means of 3 to 6 rats", "protocol": "(§1) Rats were used 5 days after their arrival and injected under low light with freshly prepared STZ (65 mg/kg; i.p.; Sigma-Aldrich, Oakville, ON, Canada). Age-matched controls were injected with vehicle (sterile saline 0.9%, pH. 7.0). Glucose concentrations were measured, with a commercial blood glucose-monitoring kit (Accusoft; Roche Diagnostics, Laval, Que., Canada), in blood samples obtained from the tail vein, in non-fasting animals, before STZ injection, and 4 days after treatment. Only STZ-treated rats whose blood glucose concentration was higher than 20 mM were considered as diabetic.\nFour days after injection of STZ, rats were anaesthetized with CO2 inhalation and then decapitated. […] First-strand cDNA synthesized from 400 ng total RNA with random hexamer primers was used as template for each reaction with the QuantiTect Rev Transcription Kit (QIAGEN). SYBR Green-based real-time quantitative PCR using Mx3000p device for signal detection (Stratagene, La Jolla, CA, USA) was performed as described. […] For standardization and quantification, rat 18S was amplified simultaneously. […]\nPCR conditions were as follows: 95°C for 15 min, followed by 46 cycles at 94°C for 15 s, 60°C for 30 s and 72°C for 30 s. […] The relative quantification of gene expression was analyzed by the 2^-ΔΔCt method."}, "[2]": {"system": "B1R binding sites in thoracic spinal cord", "assay": "density of specific B1R binding sites, quantitative autoradiography", "parameters": "species or system rat", "details": "STZ 65 mg/kg i.p., 4 days, 7 to 8 rats", "protocol": "as §1\nThe radioligands for kinin B1R, HPP-desArg^10-Hoe140 (3-(4 hydroxyphenyl) propionyl-desArg^9-D-Arg^0 [Hyp^3, Thi^5, D-Tic^7, Oic^8]Bradykinin) and kinin B2R, HPP-Hoe140 (3-(4 hydroxyphenyl) propionyl-D-Arg^0 [Hyp^3, Thi^5, D-Tic^7, Oic^8]Bradykinin) were synthesized and kindly provided by Dr Witold Neugebauer (Dept Pharmacology, University of Sherbrooke, Sherbrooke, Que., Canada). They were iodinated by the chloramine T method. […] Autoradiograms were quantified by densitometry using an MCID™ image analysis system (Imaging Research, St. Catharines, ON, Canada). […] Specific binding was determined by subtracting values of nonspecific binding from that of total binding."}, "[3]": {"target": "T1, kinin B2R (Rattus norvegicus, UniProt P25023)", "T1 construct": "from tissue; host or cells: rat tissue sections (spinal cord, autoradiography)", "T1 sequence (P25023 1-396)": "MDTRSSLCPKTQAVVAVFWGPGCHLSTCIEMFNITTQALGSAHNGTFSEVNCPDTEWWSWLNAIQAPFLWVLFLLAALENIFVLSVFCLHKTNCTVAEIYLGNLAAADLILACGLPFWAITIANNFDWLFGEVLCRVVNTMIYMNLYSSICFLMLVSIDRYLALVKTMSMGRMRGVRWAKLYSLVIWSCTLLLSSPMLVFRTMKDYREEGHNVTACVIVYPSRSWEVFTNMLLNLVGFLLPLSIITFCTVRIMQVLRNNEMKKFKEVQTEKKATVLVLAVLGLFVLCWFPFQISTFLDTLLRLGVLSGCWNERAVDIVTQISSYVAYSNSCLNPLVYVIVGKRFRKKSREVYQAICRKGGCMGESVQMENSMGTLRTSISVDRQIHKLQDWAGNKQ", "assay": "competition curves by quantitative autoradiography, displacement of [^125I]-HPP-Hoe 140 (B2R)", "details": "200 pM [^125I]-HPP-Hoe 140, competitor 10^-10 to 10^-6 M, thoracic spinal cord sections of STZ-treated rats, 90 min, room temperature, 25 mM PIPES-NH4OH pH 7.4; means ± SEM, 4 sections per rat from 7 rats; read-out: IC50, displacement of B2R binding sites", "protocol": "They were iodinated by the chloramine T method. […] At the end of the incubation period, slides were transferred sequentially through four rinses of 4 min each in 25 mM PIPES (pH 7.4; 4°C) dipped for 15s in distilled water (4°C) to remove the excess of salts, and then air-dried. Kodak Scientific Imaging Films BIOMAXTM MR® (Amersham Pharmacia Biotech Canada) were juxtaposed onto the slides in the presence of [^125I]-microscales and exposed at room temperature for 7 days. The films were developed (GBX developer) and fixed (GBX fixer). Autoradiograms were quantified by densitometry using an MCIDTM image analysis system (Imaging Research, St. Catharines, ON, Canada). A standard curve from [^125I]-microscales was used to convert density levels into fentomoles per milligram of protein [48]. Specific binding was determined by subtracting values of nonspecific binding from that of total binding. […] Each concentration of each competitor was tested on 4 sections per rat from 7 different rats. Those sections were exposed to the film, and total binding was calculated as described above. […] All data were expressed as means ± S.E.M. obtained from n rats. Statistical significance was determined with Student's t-test for unpaired samples or a one-way analysis of variance (ANOVA) followed by post-hoc Dunnett test for multiple comparisons."}, "[4]": {"system": "B1R in thoracic spinal cord", "assay": "BdABK fluorescent labeling of B1R and its displacement, confocal microscopy", "assay_type": "binding, rat", "details": "STZ-treated thoracic spinal cord, BdABK 50 μM co-incubated with 10^-5 M antagonist", "protocol": "On the day of experiments, sections were thawed at room temperature for 10 min to enhance sections adhesion. They were pre-incubated for 10 min in 25 mM PIPES-NH4OH buffer (pH 7.4) to allow degradation of endogenous kinins which could occupy receptors. Sections were exposed for 90 min to 50 μM BdABK. Thereafter, slides were washed twice (1 min) in PIPES and fixed with 4% para-formaldehyde. Slides were washed three times (5 min) and then exposed to 1 M of glycine for 90 min to eliminate autofluorescence from aldehyde-fixed tissue. […] Each concentration of each competitor was tested on 4 sections per rat from 7 different rats. Those sections were exposed to the film, and total binding was calculated as described above."}, "[5]": {"system": "rat model of insulin-resistance", "details": "cited from earlier work", "description": "Importantly, the development of tactile and cold allodynia in a rat model of insulin-resistance was blocked by the B1R antagonist SSR240612 [28] and by two antioxidants (N-acetyl-L-cysteine and alpha-lipoic acid) ..."}, "[6]": {"system": "B1R in primary microglial cells", "assay": "B1R induction and BdABK labeling in primary cultured microglial cells", "assay_type": "cell-based, rat", "details": "300 nM BK, 24 h", "protocol": "Mixed glial cultures were prepared following the protocol of McCarthy and de Vellis with some modifications. Briefly, forebrains were dissected out from one litter of 2-day-old Sprague-Dawley rat pups and the meninges were stripped off before enzymatic and mechanical dissociation. For enzymatic dissociation, HBSS containing 0.25% trypsin (Gibco 15090-046) was used. The tissue-trypsin suspension was incubated for 20 min at 37°C in a water bath with intermittent shaking. After the waiting time for the trypsin digestion is over we added to the tissue-trypsin suspension a mixture of prewarmed DMEM/Dnase I (Sigma DN-25, Dnase I final concentration 0. 25 mg/ml) followed by an incubation for 4 min at 37°C. The resulting suspension was dispersed by a mild mechanical trituration which consisted in the passage through 18-, 22- and 25- gauge needles. This cell suspension was then filtred through 70 μm strainer (BD Falcon 352350). After extensive washs in prewarmed HBSS, these dissociated cells were resuspended and plated in 75-cm^2 Falcon tissue-culture flasks (BD Biosciences) previously coated with 10 μg/ml poly-D-lysine (PDL). These mixed cells were growing at 37°C and 5% CO2 in DMEM (Gibco) supplemented with 10% FBS, penicillin (100 units/ml), and streptomycin ([…]). The media was changed every 2 or 3 days thereafter. […]"}, "[7]": {"system": "B1R in primary microglial cells", "details": "cited from earlier work", "description": "(§2) NF-κB upregulates B1R upon binding to its nuclear promoter."}, "[8]": {"system": "B2 receptors", "details": "via B2 receptors, protein kinase C; cited from earlier work", "description": "as §2"}},
  "note": "Values joined by “and” are separate entries in the source; they are usually repeats but may differ in a detail not shown here. Identical values can stand only once. “Also recorded” adds a separate entry of the source.",
  "data": [
    {"compound": "CN(N=O)C(=O)N[C@H]1C(O)O[C@H](CO)[C@@H](O)[C@@H]1O", "note": "(mixture of isomers) [STZ, streptozotocin]", "values": [
      {"measurement": "B1R mRNA expression increase (fold change vs control)", "setting": "[1]", "result": "18 fold and 18.1 fold"},
      {"measurement": "B1R binding sites, fold vs control", "setting": "[2]", "result": 2.7, "unit": "fold"}
    ]},
    {"compound": "NC(N)=NCCC[C@@H](N)C(=O)N[C@@H](CCCN=C(N)N)C(=O)N1CCC[C@H]1C(=O)N1C[C@H](O)C[C@H]1C(=O)NCC(=O)N[C@@H](Cc1cccs1)C(=O)N[C@@H](CO)C(=O)N1Cc2ccccc2C[C@@H]1C(=O)N1[C@H](C(=O)N[C@@H](CCCN=C(N)N)C(=O)O)C[C@@H]2CCCC[C@@H]21", "note": "[Hoe 140]", "values": [
      {"measurement": "IC50", "setting": "[3]", "result": "1.33 ± 0.1", "unit": "nM"}
    ]},
    {"compound": "CCN(C(=O)[C@@H](Cc1ccc(CN2[C@H](C)CCC[C@@H]2C)cc1)NC(=O)C[C@@H](NS(=O)(=O)c1ccc2cc(OC)ccc2c1)c1ccc2c(c1)OCO2)C(C)C.Cl", "note": "[SSR240612]", "values": [
      {"measurement": "displacement of BdABK labeling by B1R antagonist", "setting": "[4]", "result": "absence of BdABK labeling; also recorded: B1R labeling was absent; also recorded: elimination of B1R labeling"},
      {"measurement": "development of tactile and cold allodynia", "setting": "[5]", "result": "blocked"}
    ]},
    {"compound": "BK: bradykinin, preferential B2R agonist; used to induce B1R in microglia (RPPGFSPFR; Bradykinin; UniProt P01042 381-389, looked up)", "values": [
      {"measurement": "induction of B1R in primary microglial cells", "setting": "[6]", "result": "B1R was induced"},
      {"measurement": "B1R expression in cultured rat microglia exposed to BK", "setting": "[7]", "result": "B1R can be expressed in cultured rat microglia"},
      {"measurement": "intracellular calcium and NF-κB activation", "setting": "[8]", "result": "induces elevation of intracellular calcium leading to the phosphorylation and activation of NF-κB"}
    ]}
  ]
}
